# From ChEMBL document CHEMBL1909294, “Translating clinical findings into knowledge in drug safety evaluation--drug induced liver injury prediction system (DILIps)” (PLoS Comput Biol, 2011)
# *1 amine or outer side, *2 acyl side, *3 side chain or, on linkers, in order; H or OH if unused. Where a SMILES comes first, the peptide text is derived from it. Bridges are numbered along the chain shown (N, C = ends). [ ]: non-standard residue; d: D form. The star is where a group is joined. ξ: configuration not given here. X2 = N=C1NCCC([C@H](N[*:1])C(=O)[*:2])N1; ΔAla(Z-3-ureido) = NC(=O)N/C=C(\N)C(=O)O; ξβ3hOrn = NCCCC(N)CC(=O)*; Dap = NC[C@H](N)C(=O)O
# How the values were obtained:
# Hepatotoxicity [1] = test system: Hepatotoxicity;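 for HepSE Combined Scores: combined hepatic side effect score as listed in the training data of the Drug Induced Liver Injury Prediction System (DILIps)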;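 for HepSE cholecystitis: Cholecystitis-related hepatic side effect score drawn from the DILIps (drug-induced liver injury prediction) training data set; call rule not given here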;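 for HepSE cirrhosis: cirrhosis hepatic side effect score taken from the DILIps (drug-induced liver injury prediction) training set; call rule not given here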; for HepSE hepatic failure: call rule not given here;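 for HepSE hepatic necrosis: score of hepatic side effects for hepatic necrosis, drawn from the training data of DILIps, a prediction system for drug-induced liver injury; call rule not given here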;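 for HepSE hepatomegaly: hepatic side effect score for hepatomegaly, taken from the training set of the DILIps drug-induced liver injury prediction system; call rule not given here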;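 for HepSE liver fatty: hepatic side effect score for fatty liver, taken from the DILIps training set for predicting drug-induced liver injury; call rule not given here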
# Hepatotoxicity [2] = test system: Hepatotoxicity; remark: listed apart in the source;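 for HepSE Combined Scores: combined hepatic side effect score as listed in the training data of the Drug Induced Liver Injury Prediction System (DILIps)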;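 for HepSE cholecystitis: Cholecystitis-related hepatic side effect score drawn from the DILIps (drug-induced liver injury prediction) training data set; call rule not given here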;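 for HepSE cirrhosis: cirrhosis hepatic side effect score taken from the DILIps (drug-induced liver injury prediction) training set; call rule not given here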; for HepSE hepatic failure: call rule not given here;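 for HepSE hepatic necrosis: score of hepatic side effects for hepatic necrosis, drawn from the training data of DILIps, a prediction system for drug-induced liver injury; call rule not given here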;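 for HepSE hepatomegaly: hepatic side effect score for hepatomegaly, taken from the training set of the DILIps drug-induced liver injury prediction system; call rule not given here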;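 for HepSE liver fatty: hepatic side effect score for fatty liver, taken from the DILIps training set for predicting drug-induced liver injury; call rule not given here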
# Hepatotoxicity [3] = test system: Hepatotoxicity; remark: listed apart in the source;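 for HepSE Combined Scores: combined hepatic side effect score as listed in the training data of the Drug Induced Liver Injury Prediction System (DILIps)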;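 for HepSE cholecystitis: Cholecystitis-related hepatic side effect score drawn from the DILIps (drug-induced liver injury prediction) training data set; call rule not given here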; for HepSE hepatic failure: call rule not given here;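 for HepSE hepatic necrosis: score of hepatic side effects for hepatic necrosis, drawn from the training data of DILIps, a prediction system for drug-induced liver injury; call rule not given here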;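 for HepSE hepatomegaly: hepatic side effect score for hepatomegaly, taken from the training set of the DILIps drug-induced liver injury prediction system; call rule not given here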;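 for HepSE liver fatty: hepatic side effect score for fatty liver, taken from the DILIps training set for predicting drug-induced liver injury; call rule not given here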
# Hepatotoxicity [4] = test system: Hepatotoxicity; remark: listed apart in the source;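 for HepSE Combined Scores: combined hepatic side effect score as listed in the training data of the Drug Induced Liver Injury Prediction System (DILIps)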;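 for HepSE cholecystitis: Cholecystitis-related hepatic side effect score drawn from the DILIps (drug-induced liver injury prediction) training data set; call rule not given here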; for HepSE hepatic failure: call rule not given here;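 for HepSE hepatic necrosis: score of hepatic side effects for hepatic necrosis, drawn from the training data of DILIps, a prediction system for drug-induced liver injury; call rule not given here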;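 for HepSE hepatomegaly: hepatic side effect score for hepatomegaly, taken from the training set of the DILIps drug-induced liver injury prediction system; call rule not given here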;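 for HepSE liver fatty: hepatic side effect score for fatty liver, taken from the DILIps training set for predicting drug-induced liver injury; call rule not given here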
# Hepatotoxicity [5] = test system: Hepatotoxicity; remark: listed apart in the source; for HepSE hepatic failure: call rule not given here
# Hepatotoxicity [6] = test system: Hepatotoxicity; remark: listed apart in the source; for HepSE hepatic failure: call rule not given here
# Hepatotoxicity [7] = test system: Hepatotoxicity; remark: listed apart in the source
# Hepatotoxicity [8] = test system: Hepatotoxicity; remark: listed apart in the source
# Hepatotoxicity [9] = test system: Hepatotoxicity; remark: listed apart in the source
# Hepatotoxicity [10] = test system: Hepatotoxicity; remark: listed apart in the source
# Hepatotoxicity [11] = test system: Hepatotoxicity; remark: listed apart in the source
# Hepatotoxicity [12] = test system: Hepatotoxicity; remark: listed apart in the source
# Hepatotoxicity [13] = test system: Hepatotoxicity; remark: listed apart in the source
# Hepatotoxicity [14] = test system: Hepatotoxicity; remark: listed apart in the source
SMILES,HepSE_hepatomegaly (Hepatotoxicity [1]),HepSE_cholecystitis (Hepatotoxicity [2]),HepSE_liver fatty (Hepatotoxicity [3]),HepSE_hepatic necrosis (Hepatotoxicity [4]),HepSE_hepatic failure (Hepatotoxicity [5]),HepSE_Combined Scores (Hepatotoxicity [6]),HepSE_hepatitis (Hepatotoxicity [7]),HepSE_cirrhosis (Hepatotoxicity [8]),HepSE_elevated liver function tests (Hepatotoxicity [9]),HepSE_bilirubinemia (Hepatotoxicity [10]),HepSE_liver function tests abnormal (Hepatotoxicity [11]),HepSE_liver disease (Hepatotoxicity [12]),HepSE_jaundice (Hepatotoxicity [13]),HepSE_cholelithiasis (Hepatotoxicity [14])
CCC[C@@H]1C[C@@H](C(=O)N[C@@H]([C@H]2O[C@H](SC)[C@H](O)[C@@H](O)[C@H]2O)[C@@H](C)O)N(C)C1 [LINCOMYCIN],0,0,0,0,0,2,0,0,0,0,1,0,1,0
CC(CCc1ccc(O)cc1)NCCc1ccc(O)c(O)c1 (configuration not stated) [DOBUTAMINE],0,0,0,0,0,0,0,0,0,0,0,0,0,0
CCCCC[C@H](O)/C=C/[C@H]1[C@H](O)CC(=O)[C@@H]1CCCCCCC(=O)O [ALPROSTADIL],0,0,0,0,0,1,0,0,0,1,0,0,0,0
O=C(O)CCCCCCCC(=O)O [AZELAIC ACID],0,0,0,0,0,0,0,0,0,0,0,0,0,0
C[C@@H]1NC(=O)[C@@H](N)CNC(=O)[C@H](C2CCNC(=N)N2)NC(=O)/C(=C/NC(N)=O)NC(=O)[C@H](CNC(=O)CC(N)CCCN)NC1=O.N=C1NCCC([C@@H]2NC(=O)/C(=C/NC(N)=O)NC(=O)[C@H](CNC(=O)CC(N)CCCN)NC(=O)[C@H](CO)NC(=O)[C@@H](N)CNC2=O)N1 (stereo partly drawn) [CAPREOMYCIN] (H-[Dap]S[Dap](ξβ3hOrn)[ΔAla(Z-3-ureido)][X2]; lactam 1-C),0,0,0,0,0,1,0,0,0,0,0,1,0,0
NCCCC(=O)O [GAMMA-AMINOBUTYRIC ACID],0,0,0,0,0,0,0,0,0,0,0,0,0,0
C[N+](C)(C)CC(=O)O [BETAINE],0,0,0,0,0,0,0,0,0,0,0,0,0,0
C[C@H]1[C@H](NC(=O)/C(=N\OC(C)(C)C(=O)O)c2csc(N)n2)C(=O)N1S(=O)(=O)O [AZTREONAM],0,0,0,0,0,2,1,0,0,0,0,0,1,0
